Source: patent publication US6362166B1, “Antipicornaviral compounds and methods for their use and preparation” (Agouron Pharmaceuticals, Inc., priority 1996, dated 2002)
pEC50, pKi: −log10 of the molar value. Where two headings read alike, the source gives them in different places.

Key:
[1] = molecular target: T1, Recombinant Rhinovirus 3C protease (RVP) serotype-14 (Human rhinovirus 14, UniProt P03303); assay: Inhibition of Rhinovirus Protease (fluorescence resonance energy transfer assay), serotype 14; format: biochemical, human rhinovirus (HRV); details: for kobs/I: progress curves in enzyme start experiments; for INHIB (percent inhibition): 10 minute preincubation with 50 nM RVP
T1 construct: Recombinant Rhinovirus 3C proteases from serotypes 14, 16, 2 or 89; made in house
Description: Stock solution (50 mM, in DMSO) of various compounds were prepared; dilutions were in the same solvent. […] Assays contained 2% DMSO, 50 mM tris pH 7.6, 1 mM EDTA, a compound at the indicated concentrations, approximately 1 μM substrate, and 50-100 nM protease. […] The kobs/I values were obtained from reactions initiated by addition of enzyme rather than substrate. RVP activity is measured in the fluorescence resonance energy transfer assay. […] In the uncleaved peptide, the EDANS fluorescence was quenched by the proximal DABCYL moeity. When the peptide was cleaved, the quenching was relieved, and activity was measured as an increase in fluorescence signal.
In the above table, all data is RVP serotype-14 unless otherwise noted in parentheses. All strains of human rhinovirus (HRV) were purchased from American Type Culture Collection (ATCC), except for serotype 14, which was produced from the infectious cDNA clone constructed and supplied to us by Dr. Roland Rueckert at the Institute for Molecular Virology, University of Wisconsin, Madison, Wisc. […] The data in the column designated kobs/I was measured from progress curves in enzyme start experiments.

[2] = tested on: HRV-14; assay: Antirhinoviral HI-HeLa Cell Culture Assay (Cell Protection Assay, XTT dye reduction); format: cell-based, human rhinovirus (HRV) serotype-14; details: HI-HeLa cells infected with HRV-14, m.o.i. 0.13; two days; XTT; read-out: EC50
Description: In the Cell Protection Assay, the ability of compounds to protect cells against HRV infection was measured by the XTT dye reduction method. This method is described in Weislow, O. S., R. Kiser, D. L. Fine, J. Bader, R. H. Shoemaker, and M. R. Boyd, J. Natl. Cancer Inst. 1989, 81, 577-586, which is incorporated herein by reference.
(§1) HI-HeLa cells were infected with HRV-14 at a multiplicity of infection (m.o.i.) of 0.13 (virus particles/cell) or mock-infected with medium only. Infected or mock-infected cells were resuspended at 8×10^5 cells per mL and incubated with appropriate concentration of compounds of formulas I and II. Two days later, XTT/PMS was added to test plates and the amount of formazan produced was quantified spectrophotometrically at 450/650 nm. […] The therapeutic index (TI) was calculated by dividing the CC50 by the EC50.
(§2) All strains of human rhinovirus (HRV) for use in this assay were purchased from American Type Culture Collection (ATCC), except for HRV serotype-14, which was produced from the infectious cDNA clone, constructed and supplied to us by Dr. Roland Rueckert at the Institue for Molecular Virology, University of Wisconsin, Madison, Wisc. HRV stocks were propagated, and antiviral assays were perforemd in HI-HeLa cells (ATCC). Cells were grwon in Minimal Essential Medium, available from Life Technologies, with 10% fetal bovine serum.
The compounds were tested against control compounds WIN 51711, WIN 52084, and WIN 54954, all obtained from Sterling-Winthrop Pharmaceuticals, and control compound Pirodavir, obtained from Janssen Pharmaceuticals.

[3] = tested on: HI-HeLa cells; assay: Cytotoxicity in mock-infected HI-HeLa cells (antirhinoviral assay, XTT); format: cell-based
Description: as §1, §2

[4] = mock-infected HI-HeLa cells, two days, XTT, read-out: CC50
[5] = RVP serotype-14, 10 minute preincubation, substrate start, read-out: INHIB (Ki)

T1 sequence (P03303 1538-1719): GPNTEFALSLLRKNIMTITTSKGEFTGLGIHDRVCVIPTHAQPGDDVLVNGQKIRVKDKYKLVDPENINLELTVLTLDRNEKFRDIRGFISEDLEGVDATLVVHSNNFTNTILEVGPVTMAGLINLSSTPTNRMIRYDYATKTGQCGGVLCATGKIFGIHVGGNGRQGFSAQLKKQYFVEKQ

Compound | kobs/I ([1]; RVP serotype-14) | pEC50 [2] | CC50 [3, 4] [µM] | CC50 [3] [µM] | also measured
CC(C)C[C@H](NC(=O)OCc1ccccc1)C(=O)N[C@@H](Cc1ccccc1)C(=O)N[C@H](/C=C/C=O)CCC(N)=O [Compound 81] | 124,000 M-1 sec-1 | 5.10 | 112 | – | –
CCOC(=O)/C=C/[C@H](CCC(N)=O)NC(=O)[C@H](CC(C)C)NC(=O)[C@H](CC(C)C)NC(=O)OCc1ccccc1 [Compound 141] | 2,309 M-1 sec-1 | 5.27 | – | > 320 | –
CCOC(=O)/C=C/[C@H](CCC(N)=O)NC(=O)[C@H](Cc1ccccc1)NC(=O)[C@H](CC(C)C)NC(=O)C(C)C [Compound 117] | 18,760 M-1 sec-1 | 6.00 | – | > 320 | –
Cc1ccc(CC(NC(=O)C(NC(=O)SC2CCCC2)C(C)(C)C)C(=O)NC(C=CC(=O)OCc2ccccc2)CCC(N)=O)cc1 (stereo not shown) [Compound 186] | 950,000 M-1 sec-1 | – | – | – | –
COCCOC(=O)/C=C/[C@H](CCC(N)=O)NC(=O)[C@H](Cc1ccc(C)cc1)NC(=O)[C@@H](NC(=O)SC1CCCC1)C(C)(C)C [Compound 188] | – | – | – | – | pKi [1]: 6.80; kinact/KI ([1]; pH 7.6, read-out: kobs/I): 580000 M⁻¹ s⁻¹
CCOC(=O)/C=C/[C@H](CCC(N)=O)NC(=O)[C@H](Cc1ccc(F)cc1)NC(=O)[C@@H](NC(=O)SC1CCCC1)C(C)(C)C [Compound 176, Ethyl-3-[Cyclopentylthiocarbonyl-L-α-(t-Butyl-Gly)-L-(4-F-Phe)-L-Gln]-E-Propenoate] | 240,000 M-1 sec-1 | 6.85 | – | > 100 | pKi [1, 5]: 6.32
CCOC(=O)C=CC(CCC(N)=O)NC(=O)C(Cc1ccccc1)NC(=O)C(NC(=O)SC1CCCC1)C(C)(C)[S+](C)[O-] (mixture of isomers) [Compound 179, Ethyl-3-(Cyclopentylthiocarbonyl-L-[S(O)-Me-Pen]-L-Phe-L-Gln)-E-Propenoate] | 300,000 M-1 sec-1 | 5.75 | – | > 100 | pKi [1, 5]: 6.44
CCOC(=O)/C=C/[C@H](CCC(N)=O)NC(=O)[C@H](Cc1ccccc1)NS(=O)(=O)Cc1ccccc1 [Compound 32, Ethyl-3-[N-(Benzylsulfonyl)-L-Phe-L-Gln]-E-Propenoate] | 280 M⁻¹ s⁻¹ | 5.00 | – | > 100 | –
CCOC(=O)/C=C/[C@H](CCC(N)=O)NC(=O)[C@@H](NC(=O)[C@H](CC(C)C)NC(=O)OCc1ccccc1)C(C)O (stereo partly shown) [Compound 134] | 1,769 M-1 sec-1 | 4.25 | – | > 320 | –
CCOC(=O)/C=C/[C@H](CCC(N)=O)NC(=O)[C@H](Cc1ccccc1)NC(=O)[C@H](C)NC(=O)OCc1ccccc1 [Compound 101] | 11,288 M-1 sec-1 | 5.70 | > 320 | – | –
CCOC(=O)/C=C/[C@H](CCC(N)=O)NC(=O)[C@H](Cc1ccc(C)cc1)NC(=O)[C@@H](NC(=O)OC1CCCC1)C(C)(C)C [Compound 190] | 29,230 M-1 sec-1 | – | – | – | –
CCOC(=O)/C=C/[C@H](CNC(N)=O)NC(=O)[C@H](Cc1ccccc1)NC(=O)[C@H](CC(C)C)NC(=O)OCc1ccccc1 [Compound 16, Ethyl-3-[CBZ-L-Leu-L-Phe-L-(N-carbamyl-amino)-Ala]-E-Propenoate] | 3,500 M-1 sec-1 | 4.49 | – | > 100 | INHIB (percent inhibition) ([1]; RVP serotype-14, […] compound): 40(0.25) percent
CCNC(=O)/C=C/[C@H](CCC(N)=O)NC(=O)[C@H](Cc1ccccc1)NC(=O)[C@H](CC(C)C)NC(=O)OCc1ccccc1 [Compound 6, N-Ethyl-3-(CBZ-L-Leu-L-Phe-L-Gln)-E-Propenamide] | 350 M⁻¹ s⁻¹ | < 3.49 | – | > 320 | pKi [1, 5]: 4.49
CC(C)C[C@H](NC(=O)OCc1ccccc1)C(=O)N[C@@H](Cc1ccccc1)C(=O)N[C@H](/C=C/C(=O)N1CCc2cccc(S(C)(=O)=O)c21)CCC(N)=O [Compound 95] | <1000 M⁻¹ s⁻¹ | < 3.49 | > 320 | – | –
CC(C)C[C@H](NC(=O)OCc1ccccc1)C(=O)N[C@@H](Cc1ccccc1)C(=O)N[C@H](/C=C/C(=O)N1CCCCO1)CCC(N)=O [Compound 84] | 18,650 M-1 sec-1 | 4.80 | > 320 | – | –
CC(C)C[C@H](NC(=O)OCc1ccccc1)C(=O)N[C@@H](Cc1ccccc1)C(=O)N[C@H](/C=C/C(=O)c1ccc(C#N)cc1)CCC(N)=O [Compound 80] | 200,000 M-1 sec-1 | 4.30 | > 320 | – | –
CCOC(=O)/C=C/[C@H](CCC(N)=O)NC(=O)[C@H](Cc1ccc(C(N)=O)cc1)NC(=O)[C@H](CC(C)C)NC(=O)OCc1ccccc1 [Compound 133] | 9,600 M-1 sec-1 | < 3.75 | – | 177 | –
CCOC(=O)/C(C)=C/[C@H](CCC(N)=O)NC(=O)[C@H](Cc1ccccc1)NC(=O)[C@@H](NC(=O)SCC)C(C)(C)C [Compound 168, Ethyl-2-Methyl-3-[Ethylthiocarbonyl-L-α-(t-Butyl-Gly)-L-Phe-L-Gln]-E-Propenoate] | 37,800 M-1 sec-1 | 6.49 | – | > 100 | –
CC(C)C[C@H](NC(=O)OCc1ccccc1)C(=O)N[C@@H](Cc1ccccc1)C(=O)N[C@H](/C=C/C(=O)OCC1CCCC1)CCC(N)=O [Compound 19, Cyclopentylmethyl-3-(CBZ-L-Leu-L-Phe-L-Gln)-E-Propenoate] | 7,900 M-1 sec-1 | 5.87 | – | > 100 | pKi [1, 5]: 4.46
Cc1cc(CCCCCCCOc2ccc(C3=N[C@@H](C)CO3)cc2)on1 [WIN 52084, reference compound] | – | 7.15 | > 10 | – | –
CC(C)C[C@H](NC(=O)OCc1ccccc1)C(=O)N[C@@H](Cc1ccccc1)C(=O)N[C@H](/C=C/CSc1ccccn1)CCC(N)=O [Compound 75] | – | 5.30 | – | > 100 | –
CCOC(=O)/C=C/[C@H](CCC(N)=O)NC(=O)[C@H](Cc1ccccc1)NS(=O)(=O)CC [Compound 33, Ethyl-3-[N-(Ethylsulfonyl)-L-Phe-L-Gln]-E-Propenoate] | 33 M⁻¹ s⁻¹ | – | – | > 100 | INHIB (percent inhibition) ([1]; RVP serotype-14, 10 μM compound): 24(10) percent
CCOC(=O)/C(F)=C\[C@H](CCC#N)NC(=O)[C@H](Cc1ccccc1)NC(=O)[C@H](CC(C)C)NC(=O)OCc1ccccc1 [Compound 1, Ethyl-2-Fluoro-3-[CBZ-L-Leu-L-Phe-L-(Cyanomethyl)-Ala]-E-Propenoate] | – | – | – | – | INHIB (percent inhibition) ([1]; RVP serotype-14): 77 (50) percent
Cc1cc(CCCCCCCOc2ccc(C3=NCCO3)cc2)on1 [WIN 51711, reference compound] | – | 6.11 | > 60 | – | –
CCOP(=O)(/C=C/[C@H](CCC(N)=O)NC(=O)[C@H](Cc1ccccc1)NC(=O)[C@H](CC(C)C)NC(=O)OCc1ccccc1)OCC [Compound 20, Diethyl-[2-(CBZ-L-Leu-L-Phe-L-Gln)-E-Vinyl] Phosphonate] | – | < 3.49 | > 320 | – | –
C/C(=C\[C@H](CCC(N)=O)NC(=O)[C@H](Cc1ccccc1)NC(=O)[C@H](CC(C)C)NC(=O)OCc1ccccc1)C(=O)O [Compound 144] | – | 3.99 | – | > 320 | –
CC(=O)N1CC/C(=C\[C@H](CCC(N)=O)NC(=O)[C@H](Cc2ccc(F)cc2)NC(=O)[C@@H](NC(=O)SC2CCCC2)C(C)(C)C)C1=O [Compound 189] | 386,000 M-1 sec-1 | – | – | – | –
CC(C)C[C@H](NC(=O)OCc1ccccc1)C(=O)N[C@@H](Cc1ccccc1)C(=O)NC(/C=C/C#N)CCC(N)=O (mixture of isomers) [Compound 14, 3-(CBZ-L-Leu-L-Phe-DL-Gln)-E-Propenonitrile] | – | 4.75 | – | 500 | –
CCOC(=O)/C=C/[C@H](CCC(N)=O)NC(=O)[C@H](Cc1ccc(C)cc1)NC(=O)[C@@H](NC(=O)SC1CCCC1)C(C)(C)C [Compound 174, Ethyl-3-[Cyclopentylthiocarbonyl-L-α-(t-Butyl-Gly)-L-(4-Me-Phe)-L-Gln]-E-Propenoate] | – | 7.25 | > 100 | – | –
